Experimental data reported in US20200010562A1, “NEW THERAPEUTIC STRATEGIES AGAINST BLOOD CANCER” (priority 2015, published 2020).
Read-outs that look alike come from different tables or passages of the source.

Experiments:
L1210 = assay: Erythrosin B exclusion survival/mortality of L1210 in control or FMD medium; format: cell-based, murine
MEC2 = assay: Survival/mortality of MEC2 in control or FMD medium; format: cell-based, human; details: for effect of FMD medium on growth inhibitory effect of the drug: FMD vs control medium
MEC1 = assay: Survival/mortality of MEC1 in control or FMD medium; format: cell-based, human; details: for effect of FMD medium on growth inhibitory effect of the drug: FMD vs control medium
[1] = system: primary embryonic mouse fibroblast (MEF); details: 24 h, 10 μM
[2] = In vivo CLL model, spleen weight; parameters: species or system Rag2−/−γc−/− female mice; details: fasted (STS) groups
Method: (§1) Eight-week-old Rag2−/−γ c−/− female mice were challenged intravenously (iv) via lateral tail veins with 10×10^6 MEC1 cells in 0.1 ml of saline through a 27-gauge needle, as previously described by Bertilaccio et al., (2010). Before injection, cells in log phase of growth were harvested and suspended in phosphate-buffered saline (PBS) at 100×10^6 cells/ml, and 100 μl (10×10^6 cells per mouse) was injected iv. All mice were gently warmed before intravenous injections to dilate the veins. Body weights were determined daily, and tumor progression was determined by blood smear. Animals were monitored every day for weight and general health conditions and were sacrificed when they experienced clinical signs of illness following the criteria approved and described in the protocol #742/2015—PR (see Animal Ethics Statement).
Animals were fasted for a total of 48 hours by complete deprivation of food but with free access to water. Mice were individually housed in a clean new cage to reduce cannibalism, coprophagy, and residual chow. Body weight was measured daily and immediately before and after fasting. […]
At the end of experimental procedure, peripheral blood (PB), peritoneal exudates and organs [spleen, kidneys, liver, lungs, and femoral bone marrow (BM)] were collected and analyzed either for FACS or morphological analyses. For all experimental group, spleen weight was measured (FIG. 21).

MEC1 cells [3] = assay: In vivo CLL model, histopathological analysis of organs (H&E); parameters: species or system Rag2−/−γc−/− female mice; details: majority of organs
Method: as §1
(§2) Animals were fasted for a total of 48 hours by complete deprivation of food but with free access to water. […] Body weight was measured daily and immediately before and after fasting. […]
For morphological analysis, organs (BM, spleen, kidney, liver and lung) were formalin-fixed, paraffin-embedded, cut at 3-μm-thick sections, and stained with hematoxylin and eosin. Histologic sections were evaluated in a double-blinded fashion. […] For these mice groups, the morphology of analyzed organ was similar to the control ([…]).

CD20 = details: rituximab-resistant cell lines in vitro; cited from earlier work
MEC1 cells [4] = assay: In vivo CLL model, FACS for human CD19/CD20/CD45 leukemic cells in tissues; parameters: species or system Rag2−/−γc−/− female mice; details: in combination with STS; majority of analyzed tissues
Method: as §1, §2
For FACS analysis, after blocking fragment crystallizable receptors for 10 minutes at room temperature to avoid nonspecific binding of antibodies, cells from PB, BM, peritoneal exudates, and spleen were stained with PE-Vio770 anti-human CD19 antibody. FITC anti-human CD20 and TRITC anti-human CD45 anti-human, respectively (MACS Miltenyi Biotec) and analyzed with BD FACSCANTO II flow cytometer. […]

[5] = system: relapsed and refractory indolent lymphomas; details: single agent; cited from earlier work
[6] = alone or in combination with low glucose/FCS (FMD)

For `O=P1(N(CCCl)CCCl)NCCCO1` (stereo not drawn) [Cyclophosphamide], the killing tumor cells (L1210) was “very effective in killing tumor cells”.

For `C[C@]12C=CC(=O)C=C1CC[C@@H]1[C@@H]2C(=O)C[C@@]2(C)[C@H]1CC[C@]2(O)C(=O)CO` [Prednisone], the reducing survival rates (L1210; [6]) was “did not show a strong efficiency” and the “effect on L1210 growth” value (L1210; independently of the application of the FMD) was “no or limited effect”.

In the case of `O=C(/C=C/c1cccc(S(=O)(=O)Nc2ccccc2)c1)NO` [Belinostat], the “effect of FMD medium on growth inhibitory effect of the drug” value (MEC2) is reported as “remarkably improved”, the “effect of FMD medium on growth inhibitory effect of the drug” value (MEC1) is reported as “remarkably improved” and the killing tumor cells (L1210) is reported as “very effective in killing tumor cells”.

With `C/C=C1\NC(=O)[C@H]2CSSCC/C=C/[C@H](CC(=O)N[C@H](C(C)C)C(=O)N2)OC(=O)[C@H](C(C)C)NC1=O` [Romidepsin] the “decrease of percentage of surviving cells” value [1] was “about 50%”, the mortality rate [1] was “about 12%” and the percentage of mortality [1] was 4%. The survival rate [1] was “about 77%”.

In the case of `CC(C)C[C@H](NC(=O)[C@H](Cc1ccccc1)NC(=O)c1cnccn1)B(O)O` [Bortezomib], the spleen weight [2] is reported as “significantly lower”, the “effect of FMD medium on growth inhibitory effect of the drug” value (MEC2) is reported as “remarkably improved” and the “effect of FMD medium on growth inhibitory effect of the drug” value (MEC1) is reported as “remarkably improved”. The “metastases and cluster of infiltration” value (MEC1 cells [3]; ad lib) was “lesser expanse”, the “metastases and cluster of infiltration” value (MEC1 cells [3]; with STS) was “lesser expanse” and the CD20 expression (CD20) was “increases CD20 expression”. For the same compound, the killing tumor cells (L1210) was “very effective in killing tumor cells” and the “expression of human CD19, human CD20 and human CD45” value (MEC1 cells [4]) was “significantly decreases”.

In the case of `COc1cc(/C=C/C(=O)CC(=O)/C=C/c2ccc(O)c(OC)c2)ccc1O` [Curcumin], the reducing survival rates (L1210; [6]) is reported as “did not show a strong efficiency”.

In the case of Rituximab, the “effect on cell survival and death” value (MEC2) is given as “very effective”, the overall response rate [5] is given as 50% and the “effect on cell survival and death” value (MEC1) is given as “very effective”.

For `O=C1O[C@H]([C@@H](O)CO)C(O)=C1O` [Vitamin C, L-Ascorbic acid], the reducing survival rates (L1210) was “did not show a strong efficiency”.

For (−)Epigallocatechin Gallate [EGCG], the reducing survival rates (L1210) was “did not show a strong efficiency”.
